{"source": "patent US8455397B2", "about": "“Penoxsulam as a turfgrass, vineyard and orchard floor herbicide” (Dow AgroSciences, LLC, priority 2005, dated 2013)", "key": {"[1]": {"tested_on": "pennywort (dollarweed) (HYDSS)", "assay": "Postemergent granule herbicides, turfgrass field studies", "type": "in vivo, Hydrocotyle spp", "settings": "Table III, 1 site", "method": "(§1) Field studies were conducted in established turfgrass sites containing a natural population of target broadleaf weeds. Replicated trials, containing a minimum of three replications and having individual plots ranging in size from 25 to 50 ft. sq (2.3 to 4.6 square meters), were initiated in the late spring when turf and weeds were actively growing. Granule treatments were uniformly applied to individual plots using a common hand-shaker method. Applications were made in the early morning when dew was present. Natural rainfall and supplemental irrigation were used to maintain healthy turf and active weed growth throughout the study period. Control of each weed species in the study site was made at 2, 4 and 8 weeks after treatment. Control was determined visually by comparing treated and untreated weeds and scored on a 0 to 100 percent scale where 0 corresponds to no control and 100 corresponds to complete kill."}, "[2]": {"tested_on": "white clover (TRFRE)", "assay": "Granule carrier/particle size, post emergence greenhouse study", "type": "in vivo, Trifolium repens L.", "settings": "postemergent greenhouse", "method": "Greenhouse and field studies evaluated the effect of two granule carriers and two particles sizes on the postemergent broadleaf activity of penoxsulam. The two carriers were a 46-0-0 and 28-4-12 fertilizer blend and the particle sizes averaged 0.75 mm and 2.15 mm.\nGreenhouse studies were applied both post and pre-emergence to broadleaf weeds and sedge reared from seed or nutlet in 12.7″ (32.25 cm) by 8.8″ (22.35 cm) flats of a loam soil. Particle size and carrier were evaluated post emergence, carrier comparisons with the smaller particle size of 0.75 was evaluated pre-emergence. Stage of growth of species at post emergence application: PLAMA and TAROF in the 3 to 5 leaf stage, TRFRE in the 3rd tri-foliate stage and CYPES in the 3 to 4 leaf stage. Post emergence trial design was a replicated block, one species per flat, 3 replicate flats per treatment. Granule treatments were uniformly applied to individual flats on an area basis using a common hand-shaker method. Post emergence applications were made to the flat covering both soil and misted foliage. Trial was sub-irrigated daily, and watered over the top 1 time per week starting 7 days after application to simulate a natural rainfall event. Active weed growth was maintained throughout the study period. Weed control of each species in the post emergence study was assessed at 2, 3 and 4 weeks after treatment. Pre-emergence trial design was 2 species per flat, 4 replicate flats, block design. Pre-emergence applications were made to the soil surface using a common hand shaker method on an area basis. Overhead irrigation was maintained throughout the trial. Weed control of each species in the pre-emergence study was assessed at 2, 3, 4 and 5 weeks after application. Control was determined visually by comparing treated and untreated flats and scored on a 0 to 100 percent scale where 0 corresponds to no control and 100 corresponds to complete kill."}, "[3]": {"tested_on": "Hydrocotyle species (HYDSS)", "assay": "Post emergent synergy field study, penoxsulam + dicamba granule", "type": "in vivo", "settings": "average of 2 studies 4 weeks after application", "method": "as §1, with “Field and greenhouse studies were conducted to determine if there may be any synergistic response when penoxsulam is combined with other herbicides for post emergence broadleaf or sedge control. Field” for “Field”\nComponent A was penoxsulam at 0.02 or 0.04 lb ai/A. Component B was dicamba at 0.1 lb ai/A. Individual products and mixture were applied on a 30-3-4 granule fertilizer formulated to deliver 116 pounds fertilizer per acre (129 kg per hectare). Loadings for the individual component on the fertilizer were: • Penoxsulam 22.4 gai/Ha (0.02 lb ai/A)=0.017% • Penoxsulam 44.9 gai/Ha (0.04 lb ai/A)=0.034% • Dicamba 112 gae/Ha (0.1 lb ai/A)=0.086%\nFor combinations the same loadings were applied to the same granule carrier and applied as a single product to test area."}, "[4]": {"tested_on": "sun spurge (EPHHE)", "assay": "Pre-emergence orchard floor weeds, greenhouse study", "type": "in vivo, Euphorbia helioscopia", "settings": "28 Days After Application", "method": "Greenhouse studies were conducted by seeding species in a loam soil and applying the herbicides to the soil surface using a Cornwall 5 milliliter glass syringe fitted with a TeeJet TN-3 nozzle on an area basis Immediately following herbicide application the pots were irrigated over the top to move the herbicides into the seeding zone. Pots were kept well irrigated throughout the trial. A percent visual weed control assessment was taken 4 weeks after application. Control was determined visually by comparing treated and untreated pots and scored on a 0 to 100 percent scale where 0 corresponds to no control and 100 corresponds to complete kill, or no emergence."}, "[5]": {"tested_on": "common purslane (POROL)", "assay": "Pre-emergence weed nursery field study", "type": "in vivo, Portulaca oleracea", "settings": "weed nursery in the field, 27 Days After Application", "method": "Field studies were conducted in a non-fumigated weed nursery trial. Weed species were planted in single strips with a row planter at 36 centimeter spacing. Plot size was 3.05×9.2 meters, 4 replicate plots per treatment. Weed species were seeded at appropriate depths and later the same day pre-emergent applications were made to the soil surface. Liquid applications were made using a backpack sprayer calibrated to deliver 187 liters per hectare (L/ha). Applications were made in Fresno, Calif. in June. Sprinkler irrigation was applied at regular intervals throughout study period. Control of each weed species in the study site was made 4 weeks after treatment. Control was determined visually by comparing treated and untreated weeds and scored on a 0 to 100 percent scale where 0 corresponds to no control and 100 corresponds to complete kill or no emergence."}}, "data": [{"smiles": "COc1cnc(OC)n2nc(NS(=O)(=O)c3c(OCC(F)F)cccc3C(F)(F)F)nc12", "note": "[Penoxsulam, 2-(2,2-difluoroethoxy)-N-(5,8-dimethoxy[1,2,4]triazolo[1,5-c]-pyrimidin-2-yl)-6-(trifluoromethyl)benzenesulfonamide]", "values": [{"measurement": "Mean Percent Weed Control", "setting": "[1]; 4 Weeks After Treatment, 22.4 gai/Ha", "value": 50, "unit": "%"}, {"measurement": "Mean Percent Weed Control", "setting": "[1]; 4 Weeks After Treatment, 44.9 gai/Ha", "value": 97, "unit": "%"}, {"measurement": "Mean Percent Weed Control", "setting": "[1]; 4 Weeks After Treatment, 67.3 gai/Ha", "value": 98, "unit": "%"}, {"measurement": "Mean Percent Weed Control", "setting": "[1]; 4 Weeks After Treatment, 100 gai/Ha", "value": 100, "unit": "%"}, {"measurement": "Mean Percent Weed Control", "setting": "[1]; 8 Weeks After Treatment, 22.4 gai/Ha", "value": 40, "unit": "%"}, {"measurement": "Mean Percent Weed Control", "setting": "[1]; 8 Weeks After Treatment, 44.9 gai/Ha", "value": 93, "unit": "%"}, {"measurement": "Mean Percent Weed Control", "setting": "[1]; 8 Weeks After Treatment, 67.3 gai/Ha", "value": 84, "unit": "%"}, {"measurement": "Mean Percent Weed Control", "setting": "[1]; 8 Weeks After Treatment, 100 gai/Ha", "value": 97, "unit": "%"}, {"measurement": "Percent Weed Control 27-30 DAA", "setting": "[2]; carrier 28-4-12, particle size 0.75 mm, 5.6 gai/Ha", "value": 40, "unit": "%"}, {"measurement": "Percent Weed Control 27-30 DAA", "setting": "[2]; carrier 28-4-12, particle size 0.75 mm, 11.2 gai/Ha", "value": 57, "unit": "%"}, {"measurement": "Percent Weed Control 27-30 DAA", "setting": "[2]; carrier 28-4-12, particle size 0.75 mm, 22.4 gai/Ha", "value": 68, "unit": "%"}, {"measurement": "Percent Weed Control 27-30 DAA", "setting": "[2]; carrier 28-4-12, particle size 2.15 mm, 5.6 gai/Ha", "value": 12, "unit": "%"}, {"measurement": "Percent Weed Control 27-30 DAA", "setting": "[2]; carrier 28-4-12, particle size 2.15 mm, 11.2 gai/Ha", "value": 38, "unit": "%"}, {"measurement": "Percent Weed Control 27-30 DAA", "setting": "[2]; carrier 28-4-12, particle size 2.15 mm, 22.4 gai/Ha", "value": 58, "unit": "%"}, {"measurement": "Percent Weed Control 27-30 DAA", "setting": "[2]; carrier 46-0-0, particle size 0.75 mm, 5.6 gai/Ha", "value": 22, "unit": "%"}, {"measurement": "Percent Weed Control 27-30 DAA", "setting": "[2]; carrier 46-0-0, particle size 0.75 mm, 11.2 gai/Ha", "value": 58, "unit": "%"}, {"measurement": "Percent Weed Control 27-30 DAA", "setting": "[2]; carrier 46-0-0, particle size 0.75 mm, 22.4 gai/Ha", "value": 72, "unit": "%"}, {"measurement": "Percent Weed Control 27-30 DAA", "setting": "[2]; carrier 46-0-0, particle size 2.15 mm, 5.6 gai/Ha", "value": 5, "unit": "%"}, {"measurement": "Percent Weed Control 27-30 DAA", "setting": "[2]; carrier 46-0-0, particle size 2.15 mm, 11.2 gai/Ha", "value": 33, "unit": "%"}, {"measurement": "Percent Weed Control 27-30 DAA", "setting": "[2]; carrier 46-0-0, particle size 2.15 mm, 22.4 gai/Ha", "value": 37, "unit": "%"}, {"measurement": "% Control Component A", "setting": "[3]; 22.4 gai/Ha on 30-3-4 granule fertilizer", "value": 37, "unit": "%"}, {"measurement": "% Control Component A", "setting": "[3]; 44.9 gai/Ha on 30-3-4 granule fertilizer", "value": 59, "unit": "%"}, {"measurement": "Pre-emergent Percent Mean Control", "setting": "[4]; 8.8 gai/Ha", "value": 87, "unit": "%"}, {"measurement": "Pre-emergent Percent Mean Control", "setting": "[4]; 17.5 gai/Ha", "value": 97, "unit": "%"}, {"measurement": "Pre-emergent Percent Mean Control", "setting": "[4]; 35 gai/Ha", "value": 98, "unit": "%"}, {"measurement": "Pre-emergent Percent Mean Control", "setting": "[4]; 70 gai/Ha", "value": 100, "unit": "%"}, {"measurement": "Pre-emergent Percent Mean Control", "setting": "[5]; 8.8 gai/Ha", "value": 96, "unit": "%"}, {"measurement": "Pre-emergent Percent Mean Control", "setting": "[5]; 17.5 gai/Ha", "value": 97, "unit": "%"}, {"measurement": "Pre-emergent Percent Mean Control", "setting": "[5]; 35 gai/Ha", "value": 99, "unit": "%"}, {"measurement": "Pre-emergent Percent Mean Control", "setting": "[5]; 70 gai/Ha", "value": 100, "unit": "%"}]}]}
